Measurements: patent US20230270713A1, “Administration of Resiniferatoxin For Treatment of Bladder Pain or Bladder Cancer” (Sorrento Therapeutics, Inc., priority 2020, published 2023)
“Also recorded” adds a separate entry of the source.

Assays:
[1] = tested on: CGRP and SP afferent nerve fibers (TRPV1 axons) innervating the cat bladder; assay: Density of CGRP and SP afferent nerve fibers in cat bladder (IHC, confocal); assay type: in vivo
Method: To examine the effect of intravesical instillation of RTX on the bladder, 6 healthy cats, between the 2-5 years of age, were treated with either 5 (low dose), 25 (mid dose) or 50 mcg (high dose) of RTX (volume was 25 ml; concentrations were 0.2, 1, and 2 mcg/ml). These doses are considered equivalent to administration of 20, 100, or 200 mcg in a human with a volume of 100 ml. A seventh cat received saline only and served as the control. The bladders of the anesthetized cats were emptied and then flushed with sterile saline via a foley urinary catheter. Once the saline was removed, the treatment with RTX (test cats) or saline alone (control cat) was administered over 60 seconds and left in the bladder for 20 minutes.
(§1) At day 14 the cats were anesthetized and perfused with saline followed by 10% formalin. After confirmation of successful euthanasia, lumbar and sacral segments of the spinal cord with corresponding dorsal spinal ganglia, the urinary bladder and urethra were harvested and tissues were prepared for immunohistochemistry.
(§2) Previous studies have shown that TRPV1-immunoreactive axons co-express Calcitonin gene-related peptide (CGRP) and substance P (SP) (See, e.g., Sharrad et al. (2015) Neurosci. Lett., 599: 164-171; Bae et al. (2004) J. Comp. Neurol. 478: 62-71). Since feline bladder connective tissue, smooth muscle, and cell bodies of S2 DRG express CGRP+ and SP+ axons, expression of CGRP and SP were used in these studies to identify the majority of TRPV1 axons innervating the cat bladder and TRPV1+ cell bodies in cat S2 dorsal root ganglia (DRG).

[2] = tested on: S1 and S2 DRG neurons expressing CGRP and SP; assay: CGRP and SP positive neurons in S1 and S2 dorsal root ganglia of cats (IHC); assay type: in vivo, cat
Method: as §1, §2
The percent of cell bodies from S1 and S2 DRG expressing SP and CGRP from feline bladders after intravesical application of either control (saline) or RTX (5, 25 or 50 mcg) was also examined using immunohistochemistry and confocal laser microscopy as described above. […] CGRP positive cell bodies were small to medium-size.

[3] = tested on: CGRP and SP nerve fibers innervating dog bladder; assay: Density of CGRP and SP axons in canine bladder (IHC, confocal); assay type: in vivo; conditions: dogs
Method: Canine bladders from a healthy dog (control) and from dogs with intravesical application of resiniferatoxin (RTX) at 2 different doses (25 mcg and 250 mcg) were prepared for immunohistochemistry and confocal laser microscopy to quantify the axons expressing substance P (SP) and calcitonin-gene related peptide (CGRP). Confocal images were obtained at 40× magnification using a Carl Zeiss scanning confocal laser microscope (model LSM 800, Jena, Germany) with Z-stack function.

[4] = tested on: cats with FIC (Feline Idiopathic Cystitis); assay: VSOM in cats with Feline Idiopathic Cystitis; assay type: in vivo, cat
Method: The effectiveness and safety of a single intravesical instillation with RTX was evaluated for the management of clinical and behavioral signs associated with non-obstructive FIC in cats. The primary effectiveness endpoint was the improvement in a Veterinary-specific Outcome Measure (VSOM) and Cystitis Events Survey on day 28.
The total VSOM is the sum of three individual VSOM scores that each have an integer value in the range of 1 to 5. Each individual VSOM score corresponds to a clinical sign/activity/behavior selected as relevant to FIC for an individual cat by the cat's owner or legal representative with the help of the Investigator. An example of a clinical sign/activity/behavior is pain or resentfulness on palpation. The minimum possible score for each individual VSOM score is 1, which indicates no problem, and the maximum is 5, which indicates an impossible activity/behavior or a maximum severity clinical sign. The minimum and maximum total VSOM scores are 3 and 15. On screening days (e.g., Day 0 and Day 28), the Investigator completed the VSOM questionnaire and assigned a score to each of the 3 clinical signs/activities/behaviours that were selected.
Treatment success was defined as “a reduction of at least 2 in total VSOM score at Day 3 and 28 compared to VSOM score at day 0.” A decrease of less than 2, no change, or an increase in total score was defined as treatment failure. Cats presenting an increase in any individual VSOM score were considered a treatment failure regardless of total VSOM score.
RTX was provided as a 25 μg/mL (2.4 mL) solution, formulated with polysorbate, glucose, and phosphate buffer, and diluted in saline to 1 μg/mL before instillation. Intravesical instillation: After the cat has reached an adequate anesthesia level, the perineal area was prepared using a standard aseptic technique. After preparation, a urinary catheter (type and size decided on a case by case basis) was placed using aseptic technique. Then, the urinary bladder was emptied and flushed with 20 ml of sterile saline. Once the flush solution was removed, the RTX solution was infused through the urinary catheter over 2 minutes. Once the total volume of the solution is infused, the solution was left in the urinary bladder for 20 min. At the end of this period the IVP (investigational veterinary product) solution was removed. Finally, the urinary catheter was removed, and the perineal area was flushed with 20 ml of saline. The total amount of solution removed from the bladder was recorded.
24 cats were treated and the cohorts and their respective IVP treatments are described in the table 9 below. The cohorts were populated and dosed sequentially. Cats enrolled in Cohorts 2, 3 and 4 were dosed at least 3 days after the previous cohort closed.

[5] = Safety monitoring in FIC cats; assay type: in vivo, cat
Method: As a way of monitoring the safety of the experiment for the enrolled cats, a physical examination was performed on the cats on Days 14 and 28. Measurements for body weight, body temperature, heart rate and respiratory rate were recorded. Body weight was collected for all cohorts, while the remaining variables were collected for Cohort 1, which received the highest total dose of RTX (25 μg/25 mL). […] Results were also collected for complete blood count (CBC), serum chemistry, urinalysis and culture.

[6] = Overall (Cohorts 1-4), Day 28 vs Day 0

C=C(C)[C@]12C[C@@H](C)[C@@]34O[C@](Cc5ccccc5)(O[C@@H]1[C@@H]3C=C(COC(=O)Cc1ccc(O)c(OC)c1)C[C@]1(O)C(=O)C(C)=C[C@@H]41)O2 [RTX, resiniferatoxin]
density of CGRP and SP axons innervating cat bladder body ([1]; 5, 25 and 50 mcg single administration, 14 days post-treatment, vs saline): reduced | density of CGRP or SP fibers in cat bladder ([1]; 5 mcg RTX in 25 ml saline): modest reduction | density of CGRP and SP-immunoreactive axons innervating cat bladder body ([1]; 25 and 50 mcg, day 14, vs control saline): decreased | ablation of afferent nerves ([1]; 25 mcg and 50 mcg in 25 ml saline): effective at ablating afferent nerves | density of CGRP and SP fibers in body, trigon and fundus ([1]; 25 or 50 mcg in 25 ml saline, vs control): more significant reduction | number of neurons (cell bodies) expressing CGRP and SP in S2 DRG ([2]; cat, single 25 mcg intravesical, vs saline control): does not decrease; also recorded: did not modify | percentage of CGRP+ neurons in S1 DRG and S2 DRG ([2]; cats, 5, 25 and 50 mcg, 14 days post treatment, vs control): did not affect | percentage of cell bodies expressing CGRP and SP in S1 and S2 DRG ([2]; cats, 5, 25 or 50 mcg intravesical, vs control): did not affect | percentage of SP+ neurons in S1 DRG and S2 DRG ([2]; cats, 14 days post-treatment): comparable to the control | CGRP and SP axons innervating the bladder body ([3]; 25 mcg and 250 mcg intravesical, vs control dog): drastic reduction | density of CGRP and SP nerve fibers innervating the body, trigon, and fundus ([3]; 25 mcg and 250 mcg, vs control tissue): reduced | effect of 250 mcg in reducing density of CGRP and SP compared with 25 mcg ([3]; 250 mcg vs 25 mcg): greater effect | VSOM, Maximum ([4]; 25 μg (1 μg/mL), Day 0, n 6): 12.0 | VSOM, Minimum ([4]; 25 μg (1 μg/mL), Day 28, n 5): 0.0 | VSOM treatment failure, number of cats [4, 6]: 5 n | VSOM treatment success, number of cats [4, 6]: 17 n | VSOM treatment success, percent of cats [4, 6]: (77.2%) | complete blood count (CBC), serum chemistry, urinalysis and culture [5]: No significant changes were observed | Adverse events in other cohorts ([5]; Cohorts 2-4): considered unrelated to the treatment or not serious | body weight, body temperature, heart rate and respiratory rate ([5]; Days 14 and 28, body weight all cohorts, other variables Cohort 1 (25 μg/25 mL)): No clinically significant changes were observed | Tolerability ([5]; all doses, at administration and through 28-day follow-up): overall well tolerated | serious adverse events considered related to the treatment ([5]; death of a Cohort 1 cat (25 μg/25 mL)): One serious adverse event
